Data: the supplement of paper PMC10627819

Experiments:
[1] = tested on: S. aureus Newman; assay: fitness (endpoint OD595 vs no drug) (fraction); higher = more growth; settings: one replicate
Summary of the method: (§1)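 Fitness compares growth at the stationary-phase transition with the robust mean of no-drug control wells, as a ratio of optical densities. The ratio is capped at 1. Wells of 384-well plates held 30 µl, or 55 µl for S. pneumoniae, inoculated at OD595 0.01. Readings at OD595 every 30 min for 14 h at 37 °C were corrected against the first reading.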

[2] = tested on: S. pneumoniae D39V; assay: as above
Summary of the method: as §1

[3] = tested on: S. aureus Newman; assay: Bliss interaction score (quartile over a dose matrix) (fitness difference); higher = more antagonism (negative = synergy)
Summary of the method: (§2)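 Fitness was derived from optical density at entry into stationary phase, divided by the robust mean of the no-drug wells on the same plate. That reading was taken as OD595, and the ratio was capped at 1. Single-drug fitness was inferred from the combination data. The Bliss score, observed fitness minus the expected product of single-drug fitness, was summarised as quartiles over technical, biological and donor/recipient replicates.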

[4] = tested on: B. subtilis 168; assay: as above
Summary of the method: as §2

[5] = tested on: S. pneumoniae D39V; assay: as above
Summary of the method: as §2

[6] = tested on: S. aureus DSM 20231; assay: as above
Summary of the method: as §2
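For Bliss interaction score (quartile over a dose matrix) in this document: first quartile when negative (synergy) and third quartile when positive (antagonism).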

CO/N=C(\C(=O)N[C@@H]1C(=O)N2C(C(=O)O)=C(COC(C)=O)CS[C@H]12)c1csc(N)n1 [Cefotaxime] + C/C(=C\C(=O)OCCCCCCCCC(=O)O)C[C@@H]1OC[C@H](C[C@@H]2O[C@H]2[C@@H](C)[C@H](C)O)[C@@H](O)[C@H]1O [Pseudomonic acid]
fitness
Settings | first compound 0.0018 µg/mL | first compound 0.0035 µg/mL | first compound 0.007 µg/mL | first compound 0.078 µg/mL | first compound 0.156 µg/mL | first compound 0.312 µg/mL
[1], partner 0.0313 µg/mL | – | – | – | 0.054 | 0.0458 | 0.0509
[1], partner 0.0625 µg/mL | – | – | – | 0.0409 | 0.0394 | 0.0414
[1], partner 0.125 µg/mL | – | – | – | 0.0477 | 0.0707 | 0.0616
[2], partner 0.03 µg/mL | 0.978 | 0.962 | 0.962 | – | – | –
[2], partner 0.06 µg/mL | 0.833 | 0.862 | 0.809 | – | – | –
[2], partner 0.12 µg/mL | 0.551 | 0.56 | 0.517 | – | – | –

Settings | Bliss interaction score
[3] | 0.022
[4] | 0.0549
[5] | 0.0643
[6] | 0.0223

COc1cccc2c1C(=O)c1c(O)c3c(c(O)c1C2=O)C[C@@](O)(C(=O)CO)C[C@@H]3O[C@H]1C[C@H](N)[C@H](O)[C@H](C)O1 [Doxorubicin] + C/C(=C\C(=O)OCCCCCCCCC(=O)O)C[C@@H]1OC[C@H](C[C@@H]2O[C@H]2[C@@H](C)[C@H](C)O)[C@@H](O)[C@H]1O [Pseudomonic acid]
fitness
Settings | first compound 0.25 µg/mL | first compound 0.5 µg/mL | first compound 0.625 µg/mL | first compound 1 µg/mL | first compound 1.25 µg/mL | first compound 2.5 µg/mL
[1], partner 0.0313 µg/mL | – | – | 0.0603 | – | 0.0435 | 0.0003
[1], partner 0.0625 µg/mL | – | – | 0.0314 | – | 0.0203 | 0.0075
[1], partner 0.125 µg/mL | – | – | 0.0395 | – | 0.0395 | 0.0206
[2], partner 0.03 µg/mL | 0.916 | 0.893 | – | 0.887 | – | –
[2], partner 0.06 µg/mL | 0.73 | 0.756 | – | 0.681 | – | –
[2], partner 0.12 µg/mL | 0.484 | 0.435 | – | 0.381 | – | –

Settings | Bliss interaction score
[3] | -0.0226
[4] | 0.12
[5] | -0.079
[6] | -0.0156

CO/N=C(\C(=O)N[C@@H]1C(=O)N2C(C(=O)O)=C(COC(N)=O)CS[C@H]12)c1ccco1 [Cefuroxime] + CCCCCCCCCC(=O)N[C@@H]1[C@H]([C@@H]([C@H](O[C@H]1OC2=C3C=C4C=C2OC5=C(C=C(C=C5)[C@H]([C@H]6C(=O)N[C@@H](C7=C(C(=CC(=C7)O)OC8[C@H]([C@H]([C@@H]([C@H](O8)CO)O)O)O)C9=C(C=CC(=C9)[C@H](C(=O)N6)NC(=O)[C@@H]4NC(=O)[C@@H]1C2=CC(=CC(=C2)OC2=C(C=CC(=C2)[C@H](C(=O)N[C@H](CC2=CC(=C(O3)C=C2)Cl)C(=O)N1)N)O)O)O)C(=O)O)O[C@H]1[C@@H]([C@H]([C@@H]([C@H](O1)CO)O)O)NC(=O)C)Cl)CO)O)O [Teicoplanin]
fitness, [1], main component drawn
Settings | first compound 0.04875 µg/mL | first compound 0.0975 µg/mL | first compound 0.195 µg/mL
partner 0.1562 µg/mL | ≥ 1 | 0.968 | 0.888
partner 0.3125 µg/mL | 0.991 | 0.968 | 0.953
partner 0.625 µg/mL | ≥ 1 | 0.977 | 0.973

main component drawn
Settings | Bliss interaction score
[3] | 0.0304
[4] | -0.0964
[5] | -0.0352
[6] | 0.15
